Laboratory results published in PubChem BioAssay (NCI).
Where “and” joins values, the source holds several entries; their conditions need not be identical. Equal entries are not always repeated.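 Values below derive from 48-hour exposures of cells grown in 96-well plates, with endpoints linearly interpolated between the two concentrations bracketing the appropriate inhibition level. Abbreviation: GI50, concentration required for 50% inhibition of growth. TGI: concentration producing complete growth inhibition.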

What was measured:
Test in all cases: NCI anticancer screen, dose series, 48 h
HCC-2998 colon = test system: HCC-2998 colon
IGROV1 ovarian = test system: IGROV1 ovarian
M14 melanoma = test system: M14 melanoma
MDA-MB-231 breast = test system: MDA-MB-231 breast
MOLT-4 leukemia = test system: MOLT-4 leukemia
SK-MEL-2 melanoma = test system: SK-MEL-2 melanoma
SK-MEL-5 melanoma = test system: SK-MEL-5 melanoma
SNB-19 CNS = test system: SNB-19 CNS
SW-620 colon = test system: SW-620 colon
UACC-257 melanoma = test system: UACC-257 melanoma

Row | SMILES | GI50 (HCC-2998 colon) | TGI (HCC-2998 colon) | GI50 (IGROV1 ovarian) | TGI (IGROV1 ovarian) | GI50 (M14 melanoma) | TGI (M14 melanoma) | GI50 (MDA-MB-231 breast) | TGI (MDA-MB-231 breast) | GI50 (MOLT-4 leukemia) | TGI (MOLT-4 leukemia) | GI50 (SK-MEL-2 melanoma) | TGI (SK-MEL-2 melanoma) | GI50 (SK-MEL-5 melanoma) | TGI (SK-MEL-5 melanoma) | GI50 (SNB-19 CNS) [µM] | TGI (SNB-19 CNS) | GI50 (SW-620 colon) | TGI (SW-620 colon) | GI50 (UACC-257 melanoma) | TGI (UACC-257 melanoma)
1 | CCc1ccc(NC(=O)COC(=O)c2cc([N+](=O)[O-])ccc2Sc2nnnn2C)cc1 | 15.7 µM | 29.2 µM | 24.3 µM | 95.7 µM | 3160 nM | 26 µM | 23.6 µM | > 100 µM | 20300 nM | 81.6 µM | 23.3 µM | > 100 µM | 4640 nM | 18 µM | 16.5 | 52.1 µM | 10900 nM | 31.5 µM | 19.3 µM | 61.2 µM
2 | O=c1nc2oc3ccc4ccccc4c3cc-2s1 | > 100 µM | > 100 µM | 10.2 µM | > 100 µM | 1090 nM | > 100 µM | 12.4 µM | > 100 µM | 1810 nM | > 100 µM | 3.79 µM | > 100 µM | 2440 nM | > 100 µM | 6.73 | > 100 µM | 1050 nM | > 100 µM | > 69.9 µM | > 100 µM
3 | CCCCN(CCCC)c1ccc(C(=N)c2ccc(N(CCCC)CCCC)cc2)cc1 | 0.442 µM | 1.65 µM | 1.04 µM | 2.66 µM | 672 nM | 2.09 µM | 0.759 µM | 2.06 µM | 604 nM | 2.14 µM | 0.387 µM | 1.31 µM | 547 nM | 1.61 µM | 0.468 | 1.91 µM | 306 nM | 1.29 µM | 0.561 µM | 1.63 µM
4 | C=C1C(=O)OC2/C=C(/C)C(OC(C)=O)CC(O)/C(C)=C\C(OC(=O)/C(C)=C\C)C12 (stereo not given) |  | > 100 µM |  | > 100 µM |  | > 100 µM |  | > 100 µM |  | > 100 µM |  | > 100 µM |  | > 100 µM |  | > 100 µM |  | 67.6 µM |  | > 100 µM
5 | COc1ccc2c(c1)C(=O)c1c-2c(N(C)C)nc2ccccc12 | > 100 µM | > 100 µM | > 100 µM | > 100 µM | > 100000 nM | > 100 µM | 77 µM | > 100 µM | > 100000 nM | > 100 µM | > 100 µM | > 100 µM | > 100000 nM | > 100 µM | > 100 | > 100 µM | > 100000 nM | > 100 µM | > 100 µM | > 100 µM
6 | CCOc1cc2ncc(C#N)c(Nc3ccc(OCc4ccccn4)c(Cl)c3)c2cc1NC(=O)/C=C/CN(C)C | 1.29 µM and > 2.87 µM | 20.1 µM and > 7.88 µM | 0.121 µM and 0.0191 µM | 5.7 µM and 1.84 µM | 392 nM and 380 nM | 1.95 µM and 1.58 µM | 1.35 µM and 1.48 µM | 2.99 µM and 5.63 µM | 672 nM and 463 nM | 20.3 µM and > 5.61 µM | 0.291 µM and 0.377 µM | 2.51 µM and > 4.63 µM | 1140 nM and 1820 nM | 6.21 µM and 4.02 µM | 2.52 | 22.9 µM and > 10 µM | 638 nM and 530 nM | 2.41 µM and 3.02 µM | 1.41 µM and > 4.55 µM | 4.27 µM and > 10 µM
7 | Cc1ccc(S(=O)(=O)Nc2cccc3[nH]c(C(F)(F)F)nc23)cc1 | 2.89 µM | 40.3 µM | 0.832 µM | > 100 µM | 355 nM | 38.6 µM | 1.61 µM | 22.5 µM | 605 nM | 29 µM | 0.321 µM | 3.54 µM | 429 nM | 3.98 µM | 0.972 | > 100 µM | 382 nM | > 100 µM | 1.32 µM | > 42 µM
8 | C/C=C(\C)C(=O)O[C@H]1C=CC(=O)O[C@@H]1CC[C@H](O)[C@H](C)O | 64.6 µM | > 100 µM | 42 µM | > 100 µM | 34000 nM | > 100 µM | 52.2 µM | > 100 µM | 1990 nM | > 100 µM | 37.6 µM | 98.1 µM | 25400 nM | 75.2 µM | 98.9 | > 100 µM | 24000 nM | 57.6 µM | 80.9 µM | > 100 µM
9 | COc1cccc(-n2ncc3c(N/N=C/c4ccncc4)ncnc32)c1 | > 25 µM | > 25 µM | 7.95 µM | > 25 µM | 3560 nM | > 25 µM | 3.51 µM | > 25 µM | > 25000 nM | > 25 µM | 4.33 µM | > 25 µM | 799 nM | > 9.75 µM | > 25 | > 25 µM | 5220 nM | > 25 µM | > 25 µM | > 25 µM
10 | COc1ccc(OC)c(-c2c(C#N)c(N)nc(N3CCOCC3)c2C#N)c1 | 72.7 µM | > 100 µM | 73.9 µM | > 100 µM | > 100000 nM | > 100 µM | 40.3 µM | > 100 µM | > 100000 nM | > 100 µM | > 100 µM | > 100 µM | > 100000 nM | > 100 µM | > 100 | > 100 µM | > 100000 nM | > 100 µM | 39.4 µM | > 100 µM
